Source: patent US9084734B2, “Peptide personal care compositions and methods for their use” (Danisco US Inc., priority 2005, dated 2015)
pKd: −log10 of the molar value. Bridge positions count the residues as written; N and C are the ends. Peptide text beside a SMILES is read from it.

How the values were obtained:
[1] = tested on: human umbilical vein endothelial cells (HUVEC); assay: In vitro HUVEC proliferation assay (MTS) for hVEGF inhibitory peptides; type: cell-based; conditions: 10 ng/ml VEGF, 48 hrs
Description: FIG. 12 provides a graph showing HUVEC results for designated peptides.
In this Example, experiments conducted to determine the anti-proliferative activity of anti-VEG peptides are described. The antiproliferative activity of VEGF inhibitory peptides was determined using human umbilical vein endothelial cells (HUVEC) as follows. An early passage (less than six) of HUVEC was seeded in 96-well plates at 5000 cells per well and starved for 18 hrs in 200 μl EBM medium (Cambrex) without growth factors and supplemented with 0.5% FBS, at 37° C. with 5% CO2. The medium was replaced with 180 μl of growth medium containing EBM medium with 5% fetal bovine serum and 1% DMSO. Then, 20 μl of VEGF preincubated for one hour with varying peptide concentrations (the final DMSO concentration of all the wells was 1%) were added to the wells for a final VEGF concentration of 10 ng/ml. Human VEGF antibody (R & D Systems) was used as a positive control. Cells with 0.31 to 20 ng/ml concentrations of VEGF alone in the growth medium were used to construct a standard growth curve. The cells were further incubated for 48 hrs, and the cell proliferation was measured using an MTS assay (CellTiter 96 Aqueous One Solution Cell Proliferation Assay Kit; Promega). Then, 40 μl of the MTS tetrazolium solution was added to each well and after 3 and 4 hours incubation, the plates were read at 490 nm. […]

Human VEGF165 = target: T1, Human VEGF165 (Homo sapiens, UniProt P15692); assay: BIAcore binding analysis of VEGF-binding peptides (surface plasmon resonance); conditions: two state reaction model with conformation change; 25° C.
T1 construct: purchased Biosource
T1 sequence (P15692 27-191 isoform P15692-4): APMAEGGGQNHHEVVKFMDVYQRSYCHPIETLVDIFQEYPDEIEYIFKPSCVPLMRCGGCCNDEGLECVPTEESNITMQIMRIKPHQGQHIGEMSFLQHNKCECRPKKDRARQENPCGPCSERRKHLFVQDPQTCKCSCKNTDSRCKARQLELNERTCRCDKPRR
Description: FIG. 3 provides results of a BIACORE binding analysis of VEGF binding peptides. Binding curves were obtained as described in the Examples. Data were fit to a two state reaction model with conformation change: Analyte (A) binds to ligand (B) to form complex AB.
In this Example, experiments conducted to assess the affinities of the peptides for VEGF are described. Affinities of the peptides for VEGF were measured using a BIAcore™-3000 surface plasmon resonance system (Biacore). A CM5 sensor chip was conditioned with 50 mM NaOH, 0.1% HCl, 0.1% SDS, and 0.08% H3PO4, and activated for covalent coupling of VEGF using N-ethyl-N′-(3-dimethylaminopropyl)-carbodiimide hydrochloride (EDC) and N-hydroxysuccinimide (NHS) according to the supplier's instructions (Biacore). Human VEGF165 (Biosource) was diluted to 5 μg/ml in 20 mM sodium acetate, pH 4.8 and injected at a flow rate of 2 μl/min to achieve approximately 1000 to 6000 response units (RU) of coupled protein. TNF-alpha (human TNF-alpha, Biosource, Int., Camarillo, Calif.) was similarly coupled to the CM5 sensor chip to approximately 850 to 3500 RU in the reference lane. A solution of 1 M ethanolamine was injected as a blocking agent. In some experiments, an additional solution of EDC and NHS were injected to improve baseline stability and a solution of 1 M ethanolamine injected as a blocking agent. The reference lane was activated with EDC and NHS and blocked with ethanolamine.
Peptides were synthesized using standard FMOC chemistry, purified by reverse phase HPLC to >95% purity (SynPep), and stored at 10 mg/mL in DMSO. For kinetic measurements, twofold serial diluted peptides in HBS-EP buffer, 0.01 M HEPES pH 7.4, 0.15 M NaCl, 3 mM EDTA, 0.005% Surfactant P20 (Biacore), were injected at 25° C. at a flow rate of 20 μL/min. Two-fold serial diluted DMSO samples and buffer samples were also injected for background subtraction. Kinetic parameters were calculated using BIAevaluation 3.1 software.

human skin = assay: Repeat insult patch testing (RIPT) on human skin; type: in vivo; conditions: 0.5% (w/v) in deionized water/butylene glycol; approximately 0.2 mL; 200 human volunteers
Description: In this Example, experiments conducted to determine the patch test result for anti-VEGF peptides are described. Samples of the aVEGF peptide CK37281 dosed at 0.5% (w/v) were formulated in a base formulation containing deionized water/butylene glycol. Approximately 0.2 mL of the formulation was applied to 200 human volunteers in a repeated insult patch test according to procedures designed by Clinical Research Laboratories, Inc. (Piscataway, N.J.).

| Structure (SMILES) | IC50 [1] | ka2 (Human VEGF165) | kd1 (Human VEGF165) | dermal irritation or sensitization (human skin) | pKd (Human VEGF165) |
| --- | --- | --- | --- | --- | --- |
| CC(C)C[C@@H]1NC(=O)[C@H](CC(N)=O)NC(=O)[C@H](Cc2ccc(O)cc2)NC(=O)[C@@H](NC(=O)[C@H](C)N)CSSC[C@@H](C(=O)NCC(=O)NCC(=O)NCC(=O)O)NC(=O)[C@H]([C@@H](C)O)NC(=O)[C@H](Cc2c[nH]c3ccccc23)NC(=O)CNC(=O)[C@H](Cc2ccc(O)cc2)NC1=O [CK37281, YNLYGWT] | micromolar range | 1.5 e-3 s^−1 | 0.0122 s⁻¹ | no dermal irritation or sensitization | – |
| CC(C)C[C@@H]1NC(=O)[C@H](CC(N)=O)NC(=O)[C@@H](NC(=O)[C@H](C)N)CSSC[C@@H](C(=O)NCC(=O)NCC(=O)NCC(=O)O)NC(=O)[C@H](Cc2c[nH]c3ccccc23)NC(=O)[C@H](Cc2ccccc2)NC(=O)[C@H](Cc2c[nH]cn2)NC(=O)[C@@H]2CCCN2C(=O)[C@H](Cc2c[nH]c3ccccc23)NC1=O [CK37283] (H-ACNLWPHFWCGGG-OH; disulfide 2-10; N-terminus and C-terminus assumed) | micromolar range | 6.34 e-3 s^−1 | 0.318 s⁻¹ | – | 5.31 |
